Here are results for 24 molecules from patent US20120088753A1, “PYRROLOPYRIMIDINES AND USED AS KINASE INHIBITORS” (MEDICAL RESEARCH COUNCIL TECHNOLOGY, priority 2009, published 2012).

For this assay, the target named is T1, TBK1 (Homo sapiens, UniProt Q9UHD2).
T1 construct: All protein kinases were of human origin and encoded full length proteins, unless indicated otherwise; His6; made in house; host or cells: insect Sf21 cells
T1 sequence (Q9UHD2 1-729): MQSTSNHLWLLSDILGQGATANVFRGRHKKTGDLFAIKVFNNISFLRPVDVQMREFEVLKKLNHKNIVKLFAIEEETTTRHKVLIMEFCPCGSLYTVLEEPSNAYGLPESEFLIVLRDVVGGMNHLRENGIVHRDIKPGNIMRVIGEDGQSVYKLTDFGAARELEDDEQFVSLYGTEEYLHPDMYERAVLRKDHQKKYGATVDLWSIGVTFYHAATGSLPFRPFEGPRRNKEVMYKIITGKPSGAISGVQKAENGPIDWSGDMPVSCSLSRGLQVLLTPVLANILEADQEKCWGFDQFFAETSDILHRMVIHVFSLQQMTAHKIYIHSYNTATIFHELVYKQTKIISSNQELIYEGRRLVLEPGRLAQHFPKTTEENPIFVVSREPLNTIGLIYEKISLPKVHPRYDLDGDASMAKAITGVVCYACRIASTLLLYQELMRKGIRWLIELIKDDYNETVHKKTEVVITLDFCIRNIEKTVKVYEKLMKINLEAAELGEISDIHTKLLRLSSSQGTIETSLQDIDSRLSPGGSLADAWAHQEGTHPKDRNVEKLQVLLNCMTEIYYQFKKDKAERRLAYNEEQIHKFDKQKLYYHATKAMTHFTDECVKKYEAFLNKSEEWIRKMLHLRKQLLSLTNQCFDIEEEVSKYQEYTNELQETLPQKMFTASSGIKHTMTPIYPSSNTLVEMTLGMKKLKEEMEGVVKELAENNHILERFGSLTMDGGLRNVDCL
Nature of the assay: TBK1 protein kinase assay ([γ-33P]ATP filter-plate, IC50 from 10 concentrations). The class given is biochemical. To be noted: 50 μM ATP, peptide substrate 300 μM, 30 min, 21° C.; read-out: Potency score (TBK1 IC50). The text has this: All protein kinases were of human origin and encoded full length proteins, unless indicated otherwise. They were either expressed as glutathione S-transferase (GST) fusion proteins in Escherichia Coli or as hexahistidine (His6)-tagged proteins in insect Sf21 cells. GST fusion proteins were purified by affinity chromatography on glutathione-Sepharose, and His6-tagged proteins on nickel/nitriloacetate-agarose. The procedures for expressing some of the protein kinases used herein have been detailed previously.^8,9 The following sections outline the DNA vectors synthesised and the procedures used to express and purifying protein kinases that have not been reported previously.
The following kinases were expressed in Sf21 cells: Aurora B and Aurora C, extra-cellular signal-regulated kinase 8 (ERK8), microtubule affinity regulating kinase 3 (MARK3), protein kinase Bα[118-480][S473D], protein kinase Bβ (PKBβ[120-481][S474D], 3-phosphoinositide-dependent protein kinase-1 [52-556] (PDK1[52-556], IKKε, TBK1,
All assays (25.5 μl) were carried out at room temperature (21° C.) and were linear with respect to time and enzyme concentration under the conditions used. Assays were performed for 30 min using Multidrop Micro reagent dispensers (Thermo Electron Corporation, Waltham, Mass. 02454, USA) in a 96-well format. The concentration of magnesium acetate in the assays was 10 mM and the [γ-33P] ATP (800 cpm/pmol) was used at 5, 20 or 50 μM as indicated, in order to be at or below the Km for ATP for each enzyme. Protein kinases assayed at 5 μM ATP were: ERK1, ERK8, PKBα, MARK3, Aurora C. Protein kinases assayed at 20 μM ATP were: JNK1, PDK1, CHK1, CHK2, CDK2 and Aurora B. Protein kinases assayed at 50 μM ATP were: MNK2, IKKepsilon and TBK1.
The assays were initiated with MgATP, stopped by addition of 5 μl of 0.5 M orthophosphoric acid and spotted on to P81 filterplates using a unifilter harvester (PerkinElmer, Boston, Mass. 02118, USA). The IC50 values of inhibitors were determined after carrying out assays at 10 different concentrations of each compound.
ERK1 and ERK8 were both assayed against myelin basic protein (MBP, 0.33 mg/ml). MARK3 was assayed against the peptide […] (300 μM), MNK2 against the eIF4E protein (0.5 mg/ml). PKBβ was assayed against the peptide GRPRTSSFAEGKK (30 μM). TBK1 were assayed against ([…]) (300 μM). The substrates used for other protein kinases were described previously.^8,9
Unless stated otherwise, enzymes were diluted in 50 mM Tris/HCl pH 7.5, 0.1 mM EGTA, 1 mg/ml BSA, 0.1% (v/v) 2-mercaptoethanol and assayed in 50 mM Tris/HCl pH 7.5, 0.1 mM EGTA, 0.1% (v/v) 2-mercaptoethanol.

A word on the IC50: it is the concentration that gives 50% inhibition.

Regarding `O=C(NCCCn1ccc2cnc(Nc3ccc(N4CCOCC4)nc3)nc21)C1CCCCC1` [Example 24, Cyclohexanecarboxylic acid {3-[2-(6-morpholin-4-yl-pyridin-3-ylamino)-pyrrolo[2,3-d]pyrimidin-7-yl]-propyl}-amide], the IC50 was in the range of 100 to 1000 nM.

For `O=C(CC1CCCC1)NCCCn1ccc2cnc(Nc3ccc(N4CCOCC4)nc3)nc21` [Example 25, 2-Cyclopentyl-N-{3-[2-(6-morpholin-4-yl-pyridin-3-ylamino)-pyrrolo[2,3-d]pyrimidin-7-yl]-propyl}-acetamide], the IC50 is 100 to 1000 nM.

`CCCC(=O)NCCCn1ccc2cnc(Nc3ccc(N4CCOCC4)nc3)nc21` [Example 26, N-{3-[2-(6-Morpholin-4-yl-pyridin-3-ylamino)-pyrrolo[2,3-d]pyrimidin-7-yl]-propyl}-butyramide]: the IC50 lay in the range of 100 to 1000 nM.

For `O=C(NCCCn1ccc2cnc(Nc3cccc(F)c3)nc21)C1CCC1` [Example 27, Cyclobutanecarboxylic acid {3-[2-(3-fluoro-phenylamino)-pyrrolo[2,3-d]pyrimidin-7-yl]-propyl}-amide], the IC50 was below 100 nM.

`CC(=O)Nc1cccc(Nc2ncc3ccn(CCCNC(=O)C4CCC4)c3n2)c1` [Example 28, Cyclobutanecarboxylic acid {3-[2-(3-acetylamino-phenylamino)-pyrrolo[2,3-d]pyrimidin-7-yl]-propyl}-amide]: the IC50 is below 100 nM.

As for `O=C(NCCCn1ccc2cnc(Nc3cccc(N4CCCC4=O)c3)nc21)C1CCC1` [Example 29, Cyclobutanecarboxylic acid (3-{2-[3-(2-oxo-pyrrolidin-1-yl)-phenylamino]-pyrrolo[2,3-d]pyrimidin-7-yl}-propyl)-amide], the 50% inhibitory concentration (IC50) lay in the range of 100 to 1000 nM.

In the case of `O=C(NCCCn1ccc2cnc(Nc3ccc(N4CCOCC4)nc3)nc21)C1CCC1` [Example 30, Cyclobutanecarboxylic acid {3-[2-(6-morpholin-4-yl-pyridin-3-ylamino)-pyrrolo[2,3-d]pyrimidin-7-yl]propyl}-amide], the IC50 is below 100 nM.

For the molecule `CN1CCN(c2ccc(Nc3ncc4ccn(CCCNC(=O)C5CCC5)c4n3)cn2)CC1` [Example 31, Cyclobutanecarboxylic acid (3-{2-[6-(4-methyl-piperazin-1-yl)-pyridin-3-ylamino]-pyrrolo[2,3-d]pyrimidin-7-yl}-propyl)-amide], the IC50 lay in the range of 100 to 1000 nM.

`O=C(NCCCn1ccc2cnc(Nc3cccc(F)c3)nc21)C1CCCC1` [Example 32, Cyclopentanecarboxylic acid {3-[2-(3-fluoro-phenylamino)-pyrrolo[2,3-d]pyrimidin-7-yl]-propyl}-amide]: the IC50 was in the range of 100 to 1000 nM.

Turning to `CC(=O)Nc1cccc(Nc2ncc3ccn(CCCNC(=O)C4CCCC4)c3n2)c1` [Example 33, Cyclopentanecarboxylic acid {3-[2-(3-acetylamino-phenylamino)-pyrrolo[2,3-d]pyrimidin-7-yl]-propyl}-amide], the IC50 is below 100 nM.

On to `O=C(NCCCn1cc(Cl)c2cnc(Nc3cccc(F)c3)nc21)C1CCC1` [Example 34, Cyclobutanecarboxylic acid {3-[5-chloro-2-(3-fluoro-phenylamino)-pyrrolo[2,3-d]pyrimidin-7-yl]-propyl}-amide], for which the IC50 is below 100 nM.

In the case of `O=C(NCCCn1cc(Cl)c2cnc(Nc3ccc(N4CCOCC4)nc3)nc21)C1CCC1` [Example 35, Cyclobutanecarboxylic acid {3-[5-chloro-2-(6-morpholin-4-yl-pyridin-3-ylamino)-pyrrolo[2,3-d]pyrimidin-7-yl]-propyl}-amide], the IC50 was below 100 nM.

Regarding `O=C(NCCCn1cc(Br)c2cnc(Nc3cccc(F)c3)nc21)C1CCC1` [Example 36, Cyclobutanecarboxylic acid {3-[5-bromo-2-(3-fluoro-phenylamino)-pyrrolo[2,3-d]pyrimidin-7-yl]-propyl}-amide], the IC50 was below 100 nM.

Consider `N#Cc1cn(CCCNC(=O)C2CCC2)c2nc(Nc3cccc(F)c3)ncc12` [Example 37, Cyclobutanecarboxylic acid {3-[5-cyano-2-(3-fluoro-phenylamino)-pyrrolo[2,3-d]pyrimidin-7-yl]-propyl}-amide], for which the IC50 lay within 100 to 1000 nM.

On to `O=C(NCCCn1cc(Cl)c2cnc(Nc3cccc(F)c3)nc21)c1cccs1` [Example 38, Thiophene-2-carboxylic acid {3-[5-chloro-2-(3-fluoro-phenylamino)-pyrrolo[2,3-d]pyrimidin-7-yl]-propyl}-amide], for which the half-inhibitory concentration (IC50) was in the range of 100 to 1000 nM.

With `O=C(NCCCn1ccc2cnc(Nc3ccc(N4CCCC4=O)cc3)nc21)C1CCC1` [Example 39, Cyclobutanecarboxylic acid (3-{2-[4-(2-oxo-pyrrolidin-1-yl)-phenylamino]-pyrrolo[2,3-d]pyrimidin-7-yl}-propyl)-amide], the IC50 was below 100 nM.

Take `O=C(NCCCn1ccc2cnc(Nc3ccc4[nH]ncc4c3)nc21)C1CCC1` [Example 40, Cyclobutanecarboxylic acid {3-[2-(1H-indazol-5-ylamino)-pyrrolo[2,3-d]pyrimidin-7-yl]-propyl}-amide]: the IC50 is below 100 nM.

Consider `O=C(NCCCn1ccc2cnc(Nc3cccc(-n4cncn4)c3)nc21)C1CCC1` [Example 41, Cyclobutanecarboxylic acid {3-[2-(3-1,2,4-triazol-1-yl-phenylamino)-pyrrolo[2,3-d]pyrimidin-7-yl]-propyl}-amide], for which the IC50 was below 100 nM.

In the case of `O=C(NCCCn1ccc2cnc(Nc3cccnc3)nc21)C1CCC1` [Example 43, Cyclobutanecarboxylic acid {3-[2-(pyridin-3-ylamino)-pyrrolo[2,3-d]pyrimidin-7-yl]-propyl}-amide], the IC50 is below 100 nM.

Regarding `Cn1ncc2cc(Nc3ncc4ccn(CCCNC(=O)C5CCC5)c4n3)cnc21` [Example 44, Cyclobutanecarboxylic acid {3-[2-(1-methyl-1H-pyrazolo[3,4-b]pyridin-5-ylamino)-pyrrolo[2,3-d]pyrimidin-7-yl]-propyl}-amide], the IC50 was below 100 nM.

For `O=C(NCCCn1ccc2cnc(Nc3ccc4nccn4c3)nc21)C1CCC1` [Example 45, Cyclobutanecarboxylic acid {3-[2-(imidazo[1,2-a]pyridin-6-ylamino)-pyrrolo[2,3-d]pyrimidin-7-yl]-propyl}amide], the IC50 was below 100 nM.

For `O=C(NCCCn1ccc2cnc(Nc3ccc4nccnc4c3)nc21)C1CCC1` [Example 46, Cyclobutanecarboxylic acid {3-[2-(quinoxalin-6-ylamino)-pyrrolo[2,3-d]pyrimidin-7-yl]-propyl}-amide], the IC50 was below 100 nM.

With `CCn1cc(Nc2ncc3ccn(CCCNC(=O)C4CCC4)c3n2)cn1` [Example 47, Cyclobutanecarboxylic acid {3-[2-(1-ethyl-1H-pyrazol-4-ylamino)-pyrrolo[2,3-d]pyrimidin-7-yl]-propyl}-amide], the IC50 was below 100 nM.

Take `O=C(NCCCn1ccc2cnc(Nc3cccc(N4CCOCC4)c3)nc21)C1CCC1` [Example 48, Cyclobutanecarboxylic acid {3-[2-(3-morpholin-4-yl-phenylamino)-pyrrolo[2,3-d]pyrimidin-7-yl]-propyl}-amide]: the IC50 was below 100 nM.
